What was measured:
[1] = tested on: HHV-6 variant B HST strain; assay: SITH-1 expression in HHV-6-infected U373 cells in the presence of ganciclovir (Real-time PCR); assay type: cell-based; conditions: U373 cultured overnight with drug, one day after infection, relative to ganciclovir(−)
Procedure: In the presence of ganciclovir, human glial cell lines (U373) were infected with HHV-6, and SITH-1 expression levels in the infected cells was detected by use of Real-time PCR.
The U373 cells were cultured overnight in the presence of ganciclovir at concentrations indicated in the graph. Thereafter, the U373 cells were infected with HHV-6 variant B HST strain, and after one day had passed after this infection, the SITH-1 expression levels in the cells were detected by use of Real-time PCR.
With regards to an effective concentration of ganciclovir against HHV-6 variant B, IC50 was presumed to be approximately 10 μM. As such, three concentration levels obtained by 3-fold dilution were used, with 10 μM being a median amount.
FIG. 25 illustrates suppression of SITH-1 expression by ganciclovir. The vertical axis of FIG. 25 represents SITH-1 mRNA expression level as a ratio, where 1 is the ratio for ganciclovir(−). […] When ganciclovir was used in an amount of 3 μM, 10 μM, and 30 μM, SITH-1 mRNA expression levels were reduced by approximately 20%, 40%, and 80% or more, respectively.

HHV-6 variant B = conditions: presumed value used to choose test concentrations; read-out: IC50 (effective concentration against HHV-6 variant B); cited from earlier work
HHV-6 HST strain = assay: Suppression of SITH-1 expression by heparin and anti-heparan sulfate peptide in HHV-6-infected U373 cells; assay type: cell-based; conditions: 10 unit/mL reacted with U373 cells at 4° C. for 1 hour before infection; MOI 3; 48 hours
Procedure: U373 astrocytoma cells were removed with use of trypsin-EDTA, and then a medium (10% FBS-containing DMEM) was added, so that the resultant cells were at 1×10^5 cell/mL. Then, the U373 cells were reacted with 10 unit/mL of Novo-Heparin (Mochida Pharmaceutical Co., Ltd.) or 0.1 mM of anti-3-OS Heparan sulfate (HS) peptide trifluoroacetate salt (Sigma-Aldrich) at 4° C. for 1 hour. The U373 cells were also reacted only with a medium as a control at 4° C. for 1 hour. The resultant cells were washed 3 times with a medium. Then, the U373 cells thus washed were infected with a HHV-6 HST strain virus fluid (2.9×10^6 ffu/ml) at a MOI of 3 by centrifugation. Then, the infected cells were cultured at 37° C. for 48 hours in a CO2 incubator.
From the resultant infected cells, RNA was purified by use of an RNeasy Mini Kit (Qiagen) in accordance with the standard protocol. Then, cDNA was synthesized by use of a PrimeScript RT Reagent Kit (Takara Bio). Finally, expression levels of SITH-1 and GAPDH mRNA were measured by a method similar to that used in the above (3.1).

C57BL/6NCrS1c mice = assay: Tail suspension test of mice after nasal administration of SITH-1-expressing adenovirus; assay type: in vivo; conditions: 80 mg/L Fluoxetine solution as drinking water from 2 weeks before SITH-1/Adv; test 7 days after nasal administration
Procedure: 8-week-old C57BL/6NCrS1c mice were raised at a room temperature of 24±1° C. and with lights on for 12 hours and off for 12 hours. After each of the mice was anesthetized with use of isoflurane, SITH-1/Adv or empty/Adv in an amount equivalent to 2.5×10^7 ifu was dropped into the nasal cavity, and was then sucked by the mice along with breathing. Then, the mice were returned to raising cages.
7 days after the nasal administration of SITH-1/Adv or empty/Adv, a tail suspension test was carried out for 10 minutes. A period of immobility time was measured with use of TailSuspScanTopScan (CleverSys, Inc.). The tail suspension test was carried out by suspending each mouse by taping the tail 1 cm from the end. […] In the experiment, 30 mice were used in each group.
Statistical significance (* indicates P<0.05, ** indicates P<0.01, and *** indicates P<0.001) was calculated by use of the Mann-Whitney U-test.
Then, it was studied whether or not an SSRI (selective serotonin reuptake inhibitor), which is an antidepressant, would suppress an increase in immobility time, the increase being caused by the nasal administration of the SITH-1/Adv. 80 mg/L of Fluoxetine solution as drinking water was given to 6-week-old mice, and then the mice were raised for 2 weeks. Then, SITH-1/Adv was nasally administered. 7 days after the nasal administration, a tail suspension test was carried out for 10 minutes. […]

HEK293 cells = assay: Effect of intracellular protein expression on intracellular calcium concentration (Fluo 4-AM fluorescence); assay type: cell-based; conditions: protein temporarily overexpressed in HEK293 cells, 24 hours after transfection; vs control vector (S-C protein: vs SITH-1-expressing cell)
Description: In order to express SITH-1, the S-C protein, and the C-S protein intracellularly, pFLAG-CMV-5b (SIGMA-ALDRICH), which is an expression vector for mammals, was used to construct SITH-1/pFLAG-CMV-5b, SITH-CAML/pFLAG-CMV-5b, and CAML-SITH/pFLAG-CMV-5b. In each of the fusion proteins, the spacer (SEQ ID NO: 6) shown in FIG. 1 was inserted between SITH-1 and CAML. pFLAG-CMV-5b was used as a control. Each vector was transfected into HEK293 cells by use of a CalPhos (trademark) Mammalian Transfection Kit (Takara Bio), such that each protein was temporarily overexpressed intracellularly.
A Calcium Kit II-Fluo 4 (Dojindo) was used to cause cells to take up Fluo 4-AM, 24 hours after transfection. Thereafter, an ArrayScan XTI System (ThermoFisher Scientific) was used to measure fluorescence intensities (λex=485 nm, λem=518) in cells expressing the various proteins (700 to 1300 cells per protein type).
FIG. 26 indicates the effects of SITH-1 expression, S-C protein expression, and C-S protein expression on intracellular calcium concentration. Median, maximum, and minimum values are indicated as a box-and-whisker plot. Statistical significance (′ indicates P<0.01) was determined via a multiple comparison test using Scheffe's method.

Nc1nc(O)c2ncn(COC(CO)CO)c2n1 [ganciclovir]
SITH-1 mRNA expression level reduced by ([1]; ganciclovir 3 μM): approximately 20% | SITH-1 mRNA expression level reduced by ([1]; ganciclovir 10 μM): ~40% | SITH-1 mRNA expression level reduced by ([1]; ganciclovir 30 μM): ≥ 80% | IC50 (HHV-6 variant B): ~10 µM

heparin
SITH-1 expression in U373 cells (HHV-6 HST strain): suppressed

CNCCC(Oc1ccc(C(F)(F)F)cc1)c1ccccc1 (stereo not shown) [Fluoxetine]
immobility time increases in SITH-1/Adv nasal administration mice (tail suspension test) (C57BL/6NCrS1c mice): suppressed

B1: SITH-1: HHV-6 latent infection protein, 159 amino acids, SEQ ID NO: 1 (protein)
chain: MGYEEKVSATGKTRLKILACLIVLILAAAITMLTLEIISNQKRTTTDLEAVTVALKHVSTSLASCTESTTSVHTDSVTSQPTKNKESRKKIEGKSPSWVQALTTASGIILLFCIMMIFITCSWTTEKDTEKSEVQSYASSVETLDSLNEAIIPKTEMNV
modifications: Human herpesvirus 6
intracellular calcium concentration (HEK293 cells): increased

From patent US10539578B2, “Method for diagnosing, treating, or preventing mood disorders” (JAPAN TOBACCO INC., priority 2015, dated 2020)
